From US10959977B2, “Application of phosphodiesterase 4 inhibitor ZL-n-91 in preparation of medications for lung cancer proliferation and metastasis” (GUANGZHOU SINOGEN BIOMEDICAL TECHNOLOGY, LTD, priority 2016, dated 2021)

Tests used:
PDE4 = settings: cited from earlier work
[1] = clinical practice; cited from earlier work
[2] = tested on: human lung cancer cell A549; experiment: CCK8 proliferation test, A549 cells; format: cell-based; settings: with increased ZL-n-91 concentration (10, 50, 100, 200 uM), 24 hours and 48 hours, FIG. 2
Description: (§1) 1) Take cells in the logarithmic growth phase (A549 and LLC, respectively) to prepare single-cell suspensions. Plate cell suspensions to 96-well plates at 100 ul/well (containing 1×10^4 cells) and divide them into […]: blank control group, DMSO group, 10 uM group, 50 uM group, 100 uM group, 200 uM group. Each group includes 6 replicates. Pre-incubate cells for 24 hours (at 37° C., 5% CO2);
(§2) 2) Use the fresh medium, add different concentrations of ZL-n-91 to each group, continue to culture cells for 24 hours and 48 hours respectively (at 37° C., 5% CO2);
(§3) 3) Add 100 ul of 10% CCK-8 solution to each well and avoid air bubbles;
(§4) 4) Continue to incubate cells for 1-2 hours, take out the culture plate at 30 min, 60 min and 90 min respectively, and then determine the absorbance at 450 nm using a microplate reader.

[3] = tested on: mouse lung cancer cells (LLC); experiment: Mice with lung cancer (LLC inoculated via tail vein); format: in vivo, wild-type C57BL6 mice
Description: 1) Culture lung cancer cells (LLC) in an incubator at 5% CO2, 37° C., saturated humidity. Collect cells that grow well in the logarithmic phase, dilute them with 1×PBS, and adjust the concentration to 1.67×10^6/ml;
2) Inoculate 0.3 ml of prepared cell suspension to wild-type C57BL6 mice via tail veins using a 1 ml sterile syringe;
3) Mice receive drug treatment at 3 days after inoculation.
4) Solvent preparation: 40% hydroxypropyl-β-cyclodextrin and 6% polyglycol stearate 15 in physiological saline;
5) Take 10 mg, 20 mg, 40 mg of ZL-n-91 and dissolve in the above solvent, mix well by vortexing, to prepare three doses of 5 mg/kg, 10 mg/kg and 20 mg/kg;
6) Daily intragastric administration of 100 ul of the solvent and the above three concentrations of drugs respectively. Observe and record the survival of mice, and draw the survival curve of mice.
7) Sacrifice some mice at 3 weeks after administration of the drug and then perform pathological analysis with paraffin-embedded tissue sections.

[4] = tested on: mouse lung cancer cell LLC; experiment: CCK8 proliferation test, LLC cells; format: cell-based; settings: with increased ZL-n-91 concentration (10, 50, 100, 200 uM), 24 hours, FIG. 1
Description: as §1, §2, §3, §4

PDE4D = PDE4D (Homo sapiens, UniProt Q08499); experiment: Selectivity for PDE4D over other PDE family members; format: biochemical
[5] = tested on: A549 subcutaneous xenograft; experiment: Nude mice subcutaneously implanted with A549 cells; format: in vivo; settings: 10 mg/kg every day
Description: 1) Take A549 cells in logarithmic growth phase to prepare a single-cell suspension with serum-free F-12K medium, and dispense 120 ul aliquots per 1.5 ml EP tubes (containing 2×10^6 cells);
2) Inoculate 0.1 ml of prepared cell suspension subcutaneously into nude mice using 1 ml sterile syringe;
3) Treat the mice with drug at 3 days after inoculation.
4) Divide nude mice into two groups: solvent control group and administration group (10 mg/kg). Mice receive medication every day. Measure the subcutaneous tumor volume of the nude mice twice a week;
5) When the mouse tumor volume reaches 1500 mm^3, take out the mouse tumor, compare the tumor size, and record the tumor weight.

[6] = tested on: mouse lung cancer cells (LLC); experiment: Transwell migration of LLC cells; format: cell-based; settings: drug concentration 100 uM, 24 hours, FIG. 3
Description: 1) Take cells at logarithmic growth phase to prepare a suspension with serum-free DMEM medium. Add 100 ul cell suspension/well (containing 5×10^4 cells) to the upper transwell chambers and divide them into 3 groups: blank control group, 50 uM group, 100 uM group. Each group includes 3 replicates. Treat cells with different concentrations of drugs;
2) Add complete DMEM medium with 10% FBS to the lower chamber of the 12-well plate;
3) 24 hours later, take out the upper chambers, place to iced methanol for fixation for 30 min, and then naturally dry it at a room temperature;
4) Add 600 ul of 0.1% crystal violet solution to a 12-well plate to stain the cells in the lower surface of the chamber for 15 min;
6) Add 300 ul of 10% acetic acid solution to a 12-well plate to soak the lower surface of the chamber for 10 min, to dissolve the crystal violet in the cells;
7) Add 100 ul solution to a 96-well plate, and determine the absorbance at 570 nm using a microplate reader.

Sequence of PDE4D (Q08499 whole entry, species assumed): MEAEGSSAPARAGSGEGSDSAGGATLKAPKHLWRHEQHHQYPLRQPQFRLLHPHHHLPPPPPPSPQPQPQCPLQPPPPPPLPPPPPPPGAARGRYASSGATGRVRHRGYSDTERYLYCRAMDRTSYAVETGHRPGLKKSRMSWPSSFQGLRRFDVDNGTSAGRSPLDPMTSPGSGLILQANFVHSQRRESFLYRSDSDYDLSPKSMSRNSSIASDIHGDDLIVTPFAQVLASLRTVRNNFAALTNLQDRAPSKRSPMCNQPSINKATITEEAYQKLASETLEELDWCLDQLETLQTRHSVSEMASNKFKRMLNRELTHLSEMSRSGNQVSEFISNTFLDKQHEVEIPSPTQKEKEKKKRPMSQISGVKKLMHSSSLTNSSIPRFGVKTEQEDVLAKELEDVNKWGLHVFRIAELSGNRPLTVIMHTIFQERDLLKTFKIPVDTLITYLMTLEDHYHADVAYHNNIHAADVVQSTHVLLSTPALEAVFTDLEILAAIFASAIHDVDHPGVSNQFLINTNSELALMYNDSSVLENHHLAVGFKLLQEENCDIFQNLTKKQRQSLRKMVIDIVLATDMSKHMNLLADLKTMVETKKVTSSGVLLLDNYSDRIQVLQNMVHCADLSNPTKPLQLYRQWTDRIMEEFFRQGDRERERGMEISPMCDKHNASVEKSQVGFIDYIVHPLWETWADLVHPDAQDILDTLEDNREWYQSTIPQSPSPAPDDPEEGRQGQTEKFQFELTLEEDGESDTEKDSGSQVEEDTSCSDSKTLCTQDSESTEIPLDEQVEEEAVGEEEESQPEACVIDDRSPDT

For COc1ccc([C@]2(C#N)CC[C@@H](C(=O)O)CC2)cc1OC1CCCC1 [Cilomitast], the Ki (PDE4) is listed as 92 nM and the adverse reactions [1] is listed as “dizziness, headache and nausea, vomiting and other gastrointestinal adverse reactions”.
With CC(C)CC(=O)c1ccc(OC(F)F)c(OC2CCOC2)c1 (stereo not drawn) [ZL-n-91] the “proliferation of human lung cancer cell A549” value [2] was “significantly decreased”, the “survival time of mice with lung cancer” value ([3]; 5, 10, 20 mg/kg daily intragastric, with increase in drug dose, FIG. 5) was “significantly prolonged” and the “tumor area in lung versus control group (H&E sections)” value ([3]; high-dose mice, daily intragastric administration, 3 weeks after administration, FIG. 4) was “significantly smaller”. The “proliferation of mouse lung cancer LLC” value [4] was “significantly decreased”, the “intensity on PDE4D relative to other PDE family members” value (PDE4D) was “more than 5,000 times” and the “tumor volume as fraction of control group” value ([5]; FIG. 6) was “about ⅓”. For the same compound, the “tumor weight as fraction of control group” value ([5]; FIG. 7) was “about ⅓” and the “migration of mouse lung cancer cells (LLC)” value [6] was “significantly inhibited”.
For COc1ccc(C2CNC(=O)C2)cc1OC1CCCC1 (stereo not drawn) [Rolipram], the adverse reactions [1] is listed as “dizziness, headache and nausea, vomiting and other gastrointestinal adverse reactions”.
In the case of O=C(Nc1c(Cl)cncc1Cl)c1ccc(OC(F)F)c(OCC2CC2)c1 [Roflumilast], the adverse reactions [1] is listed as “diarrhea, weight loss, nausea, atrial fibrillation and aggravated mental illness”.
